SMILES	melting point
C[C@H](NC(=O)c1c(CN2CCN(C(=O)/C=C/C(=O)O)CC2)c(-c2ccccc2)nc2ccccc12)c1ccccc1 [Example 9, (E)-4-Oxo-4-{4-[2-phenyl-4-((S)-1-phenyl-ethylcarbamoyl)-quinolin-3-ylmethyl]-piperazin-1-yl}-but-2-enoic acid]	214 to 215 °C
C[C@H](NC(=O)c1c(CN2CCN(C(=O)CCN)CC2)c(-c2ccccc2)nc2ccccc12)C1CCCCC1 [Example 21, 3-[4-(3-Amino-propanoyl)-piperazin-1-ylmethyl]-2-phenyl-quinoline-4-carboxylic acid ((S)-1-cyclohexyl-ethyl)-amide]	164 to 166 °C
CCNCCC(=O)N1CCN(Cc2c(-c3ccccc3)nc3ccccc3c2C(=O)N[C@@H](C)C2CCCCC2)CC1 [Example 22, 3-[4-(3-Ethylamino-propanoyl)-piperazin-1-ylmethyl]-2-phenyl-quinoline-4-carboxylic acid ((S)-1-cyclohexyl-ethyl)-amide]	125 °C
C[C@H](NC(=O)c1c(CN2CCN(C=O)CC2)c(-c2ccccc2)nc2ccccc12)C1CCCCC1 [Example 18, 3-(4-Formyl-piperazin-1-ylmethyl)-2-phenyl-quinoline-4-carboxylic acid ((S)-1-cyclohexyl-ethyl)-amide]	116 to 119 °C
C[C@H](NC(=O)c1c(CN2CCN(C(=O)[C@@H]3C[C@H]3C(=O)O)CC2)c(-c2ccccc2)nc2ccccc12)c1ccccc1 (mixture of isomers) [Example 7, Trans 2-(1-{4-[2-Phenyl-4-((S)-1-phenyl-ethylcarbamoyl)-quinolin-3-ylmethyl]-piperazin-1-yl}-methanoyl)-cyclopropanecarboxylic acid]	135 to 145 °C
CCOC(=O)C(C(=O)N1CCN(Cc2c(-c3ccccc3)nc3ccccc3c2C(=O)N[C@@H](C)C2CCCCC2)CC1)c1ccccc1 (stereo partly drawn) [Example 16, 3-{4-[4-((S)-1-Cyclohexyl-ethylcarbamoyl)-2-phenyl-quinolin-3-ylmethyl]-piperazin-1-yl}-3-oxo-2-phenyl-propionic acid ethyl ester]	125 to 129 °C
C[C@H](NC(=O)c1c(CN2CCN(C(=O)CCCC(=O)O)CC2)c(-c2ccccc2)nc2ccccc12)C1CCCCC1 [Example 11, 5-{4-[4-((S)-1-Cyclohexyl-ethylcarbamoyl)-2-phenyl-quinolin-3-ylmethyl]-piperazin-1-yl}-5-oxo-pentanoic acid]	125 to 130 °C

Results, then the compound that gave them:

melting point	SMILES
150 to 155 °C	C[C@H](NC(=O)c1c(CN2CCN(C(=O)CC(=O)O)CC2)c(-c2ccccc2)nc2ccccc12)C1CCCCC1 [Example 10, 3-{4-[4-((S)-1-Cyclohexyl-ethylcarbamoyl)-2-phenyl-quinolin-3-ylmethyl]-piperazin-1-yl}-3-oxo-propionic acid]
250 to 255 °C (dec.)	C[C@H](NC(=O)c1c(CN2CCN(C(=O)c3cncc(C(=O)O)c3)CC2)c(-c2ccccc2)nc2ccccc12)C1CCCCC1 [Example 14, 5-(1-{4-[4-((S)-1-Cyclohexyl-ethylcarbamoyl)-2-phenyl-quinolin-3-ylmethyl]-piperazin-1-yl}-methanoyl)-nicotinic acid]
185 to 188 °C	C[C@H](NC(=O)c1c(CN2CCN(C(=O)c3ccc(C(=O)O)cc3)CC2)c(-c2ccccc2)nc2ccccc12)C1CCCCC1 [Example 15, 4-(1-{4-[4-((S)-1-Cyclohexyl-ethylcarbamoyl)-2-phenyl-quinolin-3-ylmethyl]-piperazin-1-yl}-methanoyl)-benzoic acid]
213 to 215 °C	C[C@H](NC(=O)c1c(CN2CCN(C(=O)CC(C)(C)CC(=O)O)CC2)c(-c2ccccc2)nc2ccccc12)c1ccccc1 [Example 6, 3,3-Dimethyl-5-oxo-5-{4-[2-phenyl-4-((S)-1-phenyl-ethylcarbamoyl)-quinolin-3-ylmethyl]-piperazin-1-yl}-pentanoic acid]
120 to 122 °C	C[C@H](NC(=O)c1c(CN2CCN(C(=O)CCN3CCCCC3)CC2)c(-c2ccccc2)nc2ccccc12)C1CCCCC1 [Example 24, 2-Phenyl-3-[4-(3-piperidin-1-yl-propanoyl)-piperazin-1-ylmethyl]-quinoline-4-carboxylic acid ((S)-1-cyclohexyl-ethyl)-amide]
130 to 140 °C	C[C@H](NC(=O)c1c(CN2CCN(C(=O)[C@H]3CCCC[C@H]3C(=O)O)CC2)c(-c2ccccc2)nc2ccccc12)c1ccccc1 (mixture of isomers) [Example 8, Cis 2-(1-{4-[2-Phenyl-4-((S)-1-phenyl-ethylcarbamoyl)-quinolin-3-ylmethyl]-piperazin-1-yl}-methanoyl)-cyclohexanecarboxylic acid]
162 to 165 °C	C[C@H](NC(=O)c1c(CN2CCN(C(=O)c3nccnc3C(=O)O)CC2)c(-c2ccccc2)nc2ccccc12)C1CCCCC1 [Example 12, 3-(1-{4-[4-((S)-1-Cyclohexyl-ethylcarbamoyl)-2-phenyl-quinolin-3-ylmethyl]-piperazin-1-yl}-methanoyl)-pyrazine-2-carboxylic acid]
179 to 180 °C	C[C@H](NC(=O)c1c(CN2CCN(C(=O)c3cccc(C(=O)O)c3)CC2)c(-c2ccccc2)nc2ccccc12)C1CCCCC1 [Example 13, 3-(1-{4-[4-((S)-1-Cyclohexyl-ethylcarbamoyl)-2-phenyl-quinolin-3-ylmethyl]-piperazin-1-yl}-methanoyl)-benzoic acid]

Reference: patent US20040082589A1, “Quinoline derivatives as nk-3 and nk-2 antagonists” (priority 2000, published 2004)
